In paper PMC4460250, “Systems Pharmacology Dissecting Holistic Medicine for Treatment of Complex Diseases: An Example Using Cardiocerebrovascular Diseases Treated by TCM” (Evidence-based Complementary and Alternative Medicine : eCAM, 2015):

Tests used:
[1] = in vivo
[2] = in vivo; cited from earlier work

Row | Structure (SMILES) | Class(High: HIA value ≥0.7; Low: HIA value < 0.7) [1] | HIA(Human Intestinal Absorption) [2]
1 | C[C@]12CC[C@@H]3c4ccc(OC(=O)N(CCCl)CCCl)cc4CC[C@H]3[C@@H]1CC[C@@H]2O [Estramustine] | High (key: High: HIA value ≥0.7; Low: HIA value < 0.7) | 0.75
2 | CCN(CC)[C@@H](C)C(=O)c1ccccc1 [Diethylpropion(S)] | High (key: High: HIA value ≥0.7; Low: HIA value < 0.7) | 0.95
3 | Cc1nnc2n1-c1ccc(Cl)cc1C(c1ccccc1)=NC2 [Alprazolam] | High (key: High: HIA value ≥0.7; Low: HIA value < 0.7) | 0.9
4 | N=C(N)NC[C@@H]1COc2ccccc2O1 [Guanoxan(R)] | Low (key: High: HIA value ≥0.7; Low: HIA value < 0.7) | 0.5
5 | C=CCOc1ccccc1OC[C@H](O)CNC(C)C [Oxprenolol(R)] | High (key: High: HIA value ≥0.7; Low: HIA value < 0.7) | 0.95
6 | CC[C@@H](C(=O)O)c1ccc(N2Cc3ccccc3C2=O)cc1 [Indobufen(R)] | High (key: High: HIA value ≥0.7; Low: HIA value < 0.7) | 1
7 | COc1c(N2CCN[C@H](C)C2)c(F)cc2c(=O)c(C(=O)O)cn(C3CC3)c12 [Gatifloxacin(R)] | High (key: High: HIA value ≥0.7; Low: HIA value < 0.7) | 0.96
8 | CC(C)NC[C@H](O)c1ccc(NS(C)(=O)=O)cc1 [Sotalol(R)] | High (key: High: HIA value ≥0.7; Low: HIA value < 0.7) | 0.95
9 | Cc1cc(=O)n(-c2ccccc2)n1C [Antipyrine] | High (key: High: HIA value ≥0.7; Low: HIA value < 0.7) | 0.97
10 | CCOC(=O)C1(c2ccccc2)CCN(C)CC1 [Meperidine] | High (key: High: HIA value ≥0.7; Low: HIA value < 0.7) | 1
11 | OC[C@H](O)COc1ccc(Cl)cc1 [Chlorphenesin(S)] | High (key: High: HIA value ≥0.7; Low: HIA value < 0.7) | 1
12 | C[C@@H](CN1c2ccccc2Sc2ccccc21)N(C)C [Promethazine(S)] | High (key: High: HIA value ≥0.7; Low: HIA value < 0.7) | 0.95
13 | COP(=O)(OC)O[C@@H](c1ccc(Cl)cc1)P(=O)(OC)OC [Mifobate(R)] | High (key: High: HIA value ≥0.7; Low: HIA value < 0.7) | 0.82
14 | C[C@@H](CN(C)C)CN1c2ccccc2Sc2ccccc21 [Trimeprazine(S)] | High (key: High: HIA value ≥0.7; Low: HIA value < 0.7) | 0.8
15 | CO[C@@]1(NC(=O)C(C(=O)O)c2ccc(O)cc2)C(=O)N2C(C(=O)O)=C(CSc3nnnn3C)CO[C@@H]21 (stereo partly drawn) [Moxalactam(R)] | Low (key: High: HIA value ≥0.7; Low: HIA value < 0.7) | 0.01
16 | CN1CCN(C(=O)O[C@@H]2c3nccnc3C(=O)N2c2ccc(Cl)cn2)CC1 [Zopiclone(R)] | High (key: High: HIA value ≥0.7; Low: HIA value < 0.7) | 0.98
17 | NC[C@@H](CC(=O)O)c1ccc(Cl)cc1 [Baclofen(S)] | High (key: High: HIA value ≥0.7; Low: HIA value < 0.7) | 0.95
18 | CC(C)NC[C@H](O)c1ccc(O)c(O)c1 [Isoproterenol(R)] | High (key: High: HIA value ≥0.7; Low: HIA value < 0.7) | 0.85

Row | Structure (SMILES) | Class(High: HIA value ≥0.7; Low: HIA value < 0.7) [1] | HIA(Human Intestinal Absorption) [2]
19 | CC(C)c1cccc(C(C)C)c1O [Propofol] | High (key: High: HIA value ≥0.7; Low: HIA value < 0.7) | 1
20 | CCN(C)C(=O)Oc1cccc([C@H](C)N(C)C)c1 [Rivastigmine] | High (key: High: HIA value ≥0.7; Low: HIA value < 0.7) | 0.98
21 | O=C1CN=C(c2ccccc2Cl)c2cc([N+](=O)[O-])ccc2N1 [Clonazepam] | High (key: High: HIA value ≥0.7; Low: HIA value < 0.7) | 0.8
22 | CCN(CC)CC[C@]1(c2ccccc2)CCC(=O)NC1=O [Phenglutarimide(S)] | High (key: High: HIA value ≥0.7; Low: HIA value < 0.7) | 1
23 | N[C@H](CO)C(=O)NNCc1ccc(O)c(O)c1O [Benserazide(R)] | High (key: High: HIA value ≥0.7; Low: HIA value < 0.7) | 0.7
24 | COc1ccccc1OCCNC[C@H](O)COc1cccc2[nH]c3ccccc3c12 [Carvedilol(S)] | High (key: High: HIA value ≥0.7; Low: HIA value < 0.7) | 0.8
25 | CCN1CCC[C@@H]1CNC(=O)c1cc(S(=O)(=O)CC)ccc1OC [Sultopride(R)] | High (key: High: HIA value ≥0.7; Low: HIA value < 0.7) | 0.89
26 | COc1ccccc1OCCNC[C@@H](O)COc1cccc2[nH]c3ccccc3c12 [Carvedilol(R)] | High (key: High: HIA value ≥0.7; Low: HIA value < 0.7) | 0.8
27 | COc1cccc(C2(O)CCCCC2CN(C)C)c1 (stereo not shown) [Tramadol] | High (key: High: HIA value ≥0.7; Low: HIA value < 0.7) | 0.9
28 | CC[C@]1(c2ccc(N)cc2)CCC(=O)NC1=O [Aminoglutethimide(R)] | High (key: High: HIA value ≥0.7; Low: HIA value < 0.7) | 1
29 | C[C@@H](CN(C)C)CN1c2ccccc2CCc2ccccc21 [Trimipramine(S)] | High (key: High: HIA value ≥0.7; Low: HIA value < 0.7) | 0.8
30 | COc1ccccc1OC[C@H](O)COC(N)=O [Methocarbamol(S)] | High (key: High: HIA value ≥0.7; Low: HIA value < 0.7) | 1
31 | C[C@H]1COc2c(N3CCN(C)CC3)c(F)cc3c(=O)c(C(=O)O)cn1c23 [Ofloxacin(S)] | High (key: High: HIA value ≥0.7; Low: HIA value < 0.7) | 1
32 | CC(C)(C)NC[C@@H](O)c1ccc(O)c(CO)c1 [Albuterol(S)] | High (key: High: HIA value ≥0.7; Low: HIA value < 0.7) | 0.83
33 | O[C@@](CCN1CCCC1)(c1ccccc1)C1CCCCC1 [Procyclidine(R)] | High (key: High: HIA value ≥0.7; Low: HIA value < 0.7) | 1
34 | CN1C(=O)C[C@](C)(c2ccccc2)C1=O [Methsuximide(R)] | High (key: High: HIA value ≥0.7; Low: HIA value < 0.7) | 1
35 | CCCC[C@H]1C(=O)N(c2ccccc2)N(c2ccc(O)cc2)C1=O [Oxyphenbutazone(S)] | High (key: High: HIA value ≥0.7; Low: HIA value < 0.7) | 1
